# According to US9745328B2, “Flap modulators” (JANSSEN PHARMACEUTICA NV, priority 2013, dated 2017):
# pIC50, pKi: −log10 of the molar value. Counter-ions that a name gives are not always drawn.
# How the values were obtained:
# [1] = biological target: human FLAP (Homo sapiens (Human), UniProt P20292); experiment: FLAP binding assay (HTRF format); settings: human FLAP wild type, Table 6 (additional runs)
# Procedure, shortened: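 Binding of compounds to FLAP read out as HTRF ratio. Values are the mean of two assay plates, each sample run in duplicate per plate.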
# [2] = test system: leukotriene pathway in human whole blood (LTB4); experiment: Human whole blood assay (LTB4 levels after calcium ionophore A23187 stimulation); type: cell-based; settings: Homo sapiens, human whole blood diluted 1:1, A23187 stimulation; Table 6 (additional runs); read-out: Human Whole Blood LTB4 IC50 1:1
# Protocol: The ability of the compounds of the present invention to treat a FLAP-mediated disease and/or disorder, or associated symptoms or complications thereof, was determined using the following procedures. Binding assay data represent the average value obtained from two different assay plates, with samples run in duplicate on each plate. Human whole blood assay data represent a single replicate on an assay plate using whole blood from at least one healthy donor.
# An in vitro cellular assay was performed using human whole blood collected in heparin-containing tubes, which was used to test the ability of compounds to modulate the leukotriene pathway in human whole blood. The blood was diluted 1:1 in RPMI medium, pre-incubated for 15 min at 37° Celsius with test compounds at various concentrations, and then stimulated with calcium ionophore, A23187 (7 μg/mL), for 30 min at 37° Celsius. The samples were then centrifuged and plasma was removed. The plasma was diluted in assay buffer and LTB4 levels were measured using a commercial kit (Enzo Life Sciences). The concentration of each compound that was required for half-maximal inhibition (modulation) of recombinant enzyme activity (IC50) was calculated by a 4-parameter equation using the program GraphPad Prism (GraphPad software).
# Sequence of human FLAP (P20292 whole entry): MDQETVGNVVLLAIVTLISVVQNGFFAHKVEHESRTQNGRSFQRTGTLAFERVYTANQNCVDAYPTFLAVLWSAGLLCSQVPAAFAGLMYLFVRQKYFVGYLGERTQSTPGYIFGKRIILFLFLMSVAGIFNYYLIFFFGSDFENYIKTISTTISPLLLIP
pKi [1],pIC50 [2],SMILES
6.54,6.58,"Nc1ncc(-c2ccc(-c3ccc(C(F)(F)F)cc3C(=O)N3CCOCC3)cc2F)cn1 [Example 522, 5-[3-Fluoro-2′-(morpholin-4-ylcarbonyl)-4′-(trifluoromethyl)biphenyl-4-yl]pyrimidin-2-amine]"
8.82,7.81,"Nc1cnc(-c2ccc(-c3ccccc3Oc3cc(N)ncn3)cc2F)cn1 [Example 535, 6-{[4′-(5-Aminopyrazin-2′yl)-3′-fluorobiphenyl-2-yl]oxy}pyrimidin-4′-amine]"
8.44,7.88,"CCNS(=O)(=O)c1cc(C(F)(F)F)ccc1-c1cnc(-c2cnc(N)nc2)c(F)c1 [Example 674, 2-[6-(2-Aminopyrimidin-5-yl)-5-fluoropyridin-3-yl]-N-ethyl-5-(trifluoromethyl)benzenesulfonamide]"
7.43,7.21,"CC(=O)N1CCC(S(=O)(=O)c2ncccc2-c2ccc(-c3cnc(N)cn3)c(F)c2)CC1 [Example 816, 1-((3-(4-(2-Aminopyrazin-5-yl)-3-fluorophenyl)pyridine-2-yl)sulfonyl)piperidin-1-yl)ethanone hydrogen chloride salt]"
8.24,8.05,"Nc1cnc(-c2ccc(-c3cccnc3S(=O)(=O)C3CC3)cc2F)cn1 [Example 829, 5-{4-[2-(Cyclopropylsulfonyl)pyridin-3-yl]-2-fluorophenyl}pyrazin-2-amine formic acid salt]"
6.83,7.14,"Nc1ncc(-c2ccc(-c3cccnc3S(=O)(=O)C3CCOCC3)cc2F)cn1 [Example 831, 5-{2-Fluoro-4-[2-(tetrahydro-2H-pyran-4-ylsulfonyl)pyridin-3-yl]phenyl}pyrimidin-2-amine formic acid salt]"
7.42,5.41,"N#Cc1ncc(-c2ccccc2-c2ccc(-c3cnc(N)cn3)c(F)c2)cn1 [Example 849, 5-[4′-(5-Aminopyrazin-2-yl)-3′-fluorobiphenyl-2-yl]pyrimidine-2-carbonitrile]"
8.40,7.35,"Nc1ccc(-c2ccccc2-c2ccc(-c3cnc(N)cn3)c(F)c2)cn1 [Example 861, 5-[2′-(6-Aminopyridin-3-yl)-3-fluorobiphenyl-4-yl]pyrazin-2-amine]"
6.91,6.92,"Nc1cnc(-c2ccc(-c3ccccc3-c3cnc(N4CCNCC4)nc3)cc2F)cn1 [Example 862, 5-[3-Fluoro-2′-(2-piperazin-1-ylpyrimidin-5-yl)biphenyl-4-yl]pyrazin-2-amine]"
6.66,6.38,"NCCn1cc(-c2ccccc2-c2ccc(-c3cnc(N)cn3)c(F)c2)cn1 [Example 864, 5-{2′-[1-(2-Aminoethyl)-1H-pyrazol-4-yl]-3-fluorobiphenyl-4-yl]pyrazin-2-amine]"
7.02,6.72,"Nc1ccc(-c2ccccc2-c2ccc(-c3cnc(N)nc3)c(F)c2)cn1 [Example 865, 5-[2′-(6-Aminopyridin-3-yl)-3-fluorobiphenyl-4-yl]pyrimidin-2-amine]"
6.77,6.27,"CNc1ncc(-c2ccccc2-c2ccc(-c3cnc(N)nc3)c(F)c2)cn1 [Example 866, 5-[4′-(2-Aminopyrimidin-5-yl)-3′-fluorobiphenyl-2-yl]-N-methylpyrimidin-2-amine]"
6.61,6.10,"Nc1ncc(-c2ccc(-c3ccccc3-c3ccnc(N)n3)cc2F)cn1 [Example 867, 4-[4′-(2-Aminopyrimidin-5-yl)-3′-fluorobiphenyl-2-yl]pyrimidin-2-amine]"
7.67,6.46,"Nc1cnc(-c2ccc(-c3ccccc3-c3ccnc(N)n3)cc2F)cn1 [Example 868, 4-[4′-(5-Aminopyrazin-2-yl)-3′-fluorobiphenyl-2-yl]pyrimidin-2-amine]"
6.85,6.07,"COCCn1cc(-c2ccccc2-c2ccc(-c3cnc(N)cn3)c(F)c2)cn1 [Example 869, 5-{3-Fluoro-2′-[1-(2-methoxyethyl)-1H-pyrazol-4-yl]biphenyl-4-yl}pyrazin-2-amine]"
7.84,7.06,"Nc1cnc(-c2ccc(-c3ccccc3-c3cn[nH]c3)cc2F)cn1 [Example 870, 5-[3-Fluoro-2′-(1H-pyrazol-4-yl)biphenyl-4-yl]pyrazin-2-amine]"
7.60,6.43,"N#CCn1cc(-c2ccccc2-c2ccc(-c3cnc(N)cn3)c(F)c2)cn1 [Example 871, {4-[4′-(5-Aminopyrazin-2-yl)-3′-fluorobiphenyl-2-yl]-1H-pyrazol-1-yl}acetonitrile]"
8.08,7.28,"CNc1ncc(-c2ccccc2-c2ccc(-c3cnc(N)cn3)c(F)c2)cn1 [Example 872, 5-[4′-(5-Aminopyrazin-2-yl)-3′-fluorobiphenyl-2-yl]-N-methylpyrimidin-2-amine]"
7.64,6.47,"Nc1cnc(-c2ccc(-c3ccccc3-c3cnsc3)cc2F)cn1 [Example 873, 5-(3-Fluoro-2′-isothiazol-4-ylbiphenyl-4-yl)pyrazin-2-amine]"
7.29,6.45,Nc1cnc(-c2ccc(-c3ccccc3-c3cnn(CCO)c3)cc2F)cn1 [Example 874]
6.77,6.07,"N#CCn1cc(-c2ccccc2-c2ccc(-c3cnc(N)nc3)c(F)c2)cn1 [Example 875, {4-[4′-(2-Aminopyrimidin.-5-yl)-3′-fluorobiphenyl-2-yl]-1H-pyrazol-yl}acetonitrile]"
7.10,5.97,"Nc1ncc(-c2ccc(-c3ccccc3-c3cn[nH]c3)cc2F)cn1 [Example 876, 5-[3-Fluoro-2′-(1H-pyrazo-4-yl)biphenyl-4-yl]pyrimidin-2-amine]"
8.33,7.98,"C[C@H](NS(=O)(=O)c1ccccc1-c1cnc(-c2cnc(N)nc2)c(F)c1)C(F)(F)F [Example 877, 2-[6-(2-Aminopyrimidin-5-yl)-5-fluoropyridin-3-yl]-N-[(1S)-2,2,2-trifluoro-1-methylethyl]penzenesulfonamide as the hydrochloride salt]"
6.56,6.49,"Nc1ncc(-c2ncc(-c3ccccc3S(=O)(=O)C3CC3)cc2F)cn1 [Example 878, 5-{5-[2-(Cyclopropylsulfonyl)phenyl]-3-fluoropyridin-2-yl}pyrimidin-2-amine]"
6.77,6.97,"C[C@H](O)CNS(=O)(=O)c1ccccc1-c1cnc(-c2cnc(N)nc2)c(F)c1 [Example 879, 2-[6-(2-Aminopyrimidin-5-yl)-5-fluoropyridin-3-yl]-N-[(2S)-2-hydroxypropyl]benzenesulfonamide]"
7.06,6.75,"C[C@@H](CO)NS(=O)(=O)c1ccccc1-c1cnc(-c2cnc(N)nc2)c(F)c1 [Example 880, 2-[6-(2-Aminopyrimidin-5-yl)-5-fluoropyridin-3-yl]-N-[(1S)-2-hydroxy-1-methylethyl]benzenesulfonamide]"
7.12,6.89,"C[C@H](CO)NS(=O)(=O)c1ccccc1-c1cnc(-c2cnc(N)nc2)c(F)c1 [Example 881, 2-[6-(2-Aminopyrimidin-5-yl)-5-fluoropyridin-a-yl]-N-[(1R)-2-hydroxy-1-methylethyl]benzenesulfonamide]"
